{
  "source": "paper PMC7955127",
  "about": "“Preclinical small molecule WEHI-7326 overcomes drug resistance and elicits response in patient-derived xenograft models of human treatment-refractory tumors” (Cell Death & Disease, 2021)",
  "key": {"[1]": {"system": "MDA-MB-231", "assay": "Cell growth inhibition assay, MDA-MB-231", "type": "cell-based", "details": "Homo sapiens; MDA-MB-231, breast carcinoma; 72 h viability assay, CellTiterGlo; mean of 3 ± SEM; read-out: IC50 (inhibition of cellular proliferation)", "protocol": "Cells were plated at a density of between 500 to 5000 cells per well for adherent cell lines depending on doubling time, and 15,000 cells per well for lymphoblastic leukemia cell lines, in a 96-well plate in 200 μl of growth media. Plates were incubated overnight at 37 °C before adding the inhibitors. Inhibitors were serially diluted from the stock solutions in complete medium and added to the cells. Incubation in the presence of inhibitors was continued for […]. Cell viability was assessed by the AlamarBlue (Invitrogen) or CellTiterBlue/Glo (Promega) method according to manufacturer’s instructions. The curve fits and IC50 values were generated in PRISM (GraphPad, San Diego, CA)."}, "[2]": {"system": "SW480", "assay": "Cell cycle analysis (G2/M arrest, PI staining, flow cytometry), SW480", "type": "cell-based, human", "protocol": "Fig. 2 Antimitotic activity of WEHI-7326: cancer cell lines and effects on tubulin polymerization. a Dose-dependent antimitotic activity of WEHI-7326, nocodazol and taxol in tumor cell lines SW480 (colorectal) and MDA-MB-231 (breast). Data are presented as percentage of cells in G2/M after overnight incubation with increasing concentrations of inhibitors and PI staining followed by flow cytometry analysis. Mean average of 3 independent experiments ±SEM. b EC50 values (nM) for G2/M arrest on SW480 and MDA-MB-231 cell lines, given as mean average of 3 independent experiments ±SEM. c Western blot analysis of mitotic arrest in SW480 and MDA-MB-231 cells treated with EC50 concentrations of WEHI-7326 or Paclitaxel as marked by expression of phosho-S10 Histone H3 (p-HH3 S10), at different timepoints post treatment. Expression of β-actin provided as loading control. d Cell cycle analysis of LIM1899 cells 72 h post treatment with increasing concentrations of WEHI-7326 as measured by PI staining for DNA content followed by flow cytometry analysis. Sub-G1 represents apoptotic fractions and >4 N cell fractions of mitotic slippage. e Immunofluorescence confocal microscopy of tubulin polymerization in SW480 cells treated by various agents. Cells were incubated for 24 h with control (0.1% DMSO), nocodazole (1 μM), paclitaxel (1 μM), myoseverin B (1 μM) or WEHI-7326 (1 μM). Cells were fixed and stained with β-tubulin antibody (green) and DAPI (DNA; blue) and phalloidin (actin, red). Shown are single confocal sections and enlarged areas (3x) to highlight changes in microtubule network; scale bar = 20 μm. Representative images from 2 independent experiments. f Cellular tubulin polymerization assay in cells: SW480 cells were incubated overnight with paclitaxel, myoseverin B or WEHI-7326, then processed to detect fractions of polymerized (P) and soluble (S) tubulin by western blot analysis. Representative blot of 3 independent experiments. g Tubulin polymerization was assessed in vitro over time using a fluorescence-based tubulin polymerization assay (BK011P). Tubulin was incubated with control (DMSO), paclitaxel (3 μM), nocodazole (15 μM) and WEHI-7326 at indicated concentrations (in DMSO). Polymerization was measured by excitation at 360 nm and emission at 420 nm. Representative graph of 3 independent experiments performed in duplicates. […]\nCells in log growth were supplemented with fresh medium with either vehicle (control) or compound at the stated final concentrations. […] After 1 h incubation at room temperature in the dark, cells were analyzed on a FACScan (Becton and Dickinson) in CellQuest. The percentage of cells in each phase of the cell cycle was determined using ModFit software (Verity, http://www.vsh.com). Early and late apoptotic responses elicited by WEHI-7326 were assessed using Dead Cell Apoptosis Kit (ThermoFisher Scientific) with Annexin V FITC and PI following manufacturer’s instructions. Cells were incubated 24 h with 6-point, 4-fold titration of WEHI-7326, washed twice with cold 1X PBS, resuspended in 1X Annexin Binding Buffer, incubated with FITC Annexin V and PI for 15 mins at RT in the dark and subsequently analyzed by flow cytometry."}, "[3]": {"system": "24 T TNBC PDX", "assay": "TNBC PDX model 24T", "type": "in vivo, NOD-SCID-IL2Rγc–/– mice", "protocol": "Cohorts of about 30 female mice were seeded with thawed single cell suspensions of early passage human breast tumors (passage 2 or 3). Briefly, 150,000–250,000 cells were resuspended in 10 µl of transplantation buffer (50% fetal calf serum, 10% of a 0.04% trypan blue solution and 40% PBS) and growth-factor-reduced Matrigel [BD] at a ratio of 3:1, and injected into the cleared mammary fat pads of 3- or 4-week-old NOD-SCID-IL2Rγc–/– female mice. Mice were monitored for tumor development three times weekly and tumor size measured using digital Vernier calipers. Tumor volume was estimated by measuring the minimum and maximum tumor diameters using the formula: (minimum diameter)^2 x (maximum diameter)/2. Once tumors arose, mice were randomized into treatment arms. Treatment was initiated when the tumor volume reached 80–120 mm^3. Randomization and tumor measurements were managed using the Study Director software (v 3.0, studylog). Mice were sacrificed at the first measurement where tumor volume exceeded 600 mm^3, or if their health deteriorated for reasons other than disease progression or drug toxicity (censored event).\nMice were treated with either docetaxel (10 mg/kg; i.p.; once), cisplatin (4 mg/kg; i.p.; once) or WEHI-7326 (20 mg/kg; twice a week (Monday and Thursday); i.v.). Vehicle treated mice were administered with the vehicle for WEHI-7326. Docetaxel was resuspended at 2 mg/ml in PBS:Tween-80:ethanol = 90:5:5 (v/v/v). WEHI-7326 was resuspended at 2 mg/ml in saline."}},
  "data": [
    {"smiles": "COc1ccc(CNc2nc(NCc3ccc(CN)cc3)nc(NN3CC(=O)NC3=O)n2)cc1", "note": "[WEHI-7326]", "values": [
      {"measurement": "IC50", "setting": "[1]", "value": "24.4 ± 3.1", "unit": "nM"},
      {"measurement": "EC50", "setting": "[2]; Homo sapiens, SW480, read-out: EC50 (G2/M arrest)", "value": "98 ± 10", "unit": "nM"},
      {"measurement": "G2/M cell cycle arrest", "setting": "[2]; SW480", "value": "strong G2/M cell cycle arrest"},
      {"measurement": "Adverse effects in treatment arm", "setting": "[3]; 24 T PDX mice, 20 mg/kg i.v. twice a week, n = 7", "value": "1 sick, 1 found dead, 1 with back leg paralysis"},
      {"measurement": "Survival time", "setting": "[3]; 24 T PDX, docetaxel 10 mg/kg i.p. once, WEHI-7326 20 mg/kg i.v. biweekly", "value": 45, "unit": "days"}
    ]}
  ]
}
